Target: FliI ATPase (FliI^WT) (Salmonella enterica, UniProt P26465)
Conditions: in the presence of phospholipids; triplicate assays

Sequence of FliI ATPase (FliI^WT) (P26465 whole entry): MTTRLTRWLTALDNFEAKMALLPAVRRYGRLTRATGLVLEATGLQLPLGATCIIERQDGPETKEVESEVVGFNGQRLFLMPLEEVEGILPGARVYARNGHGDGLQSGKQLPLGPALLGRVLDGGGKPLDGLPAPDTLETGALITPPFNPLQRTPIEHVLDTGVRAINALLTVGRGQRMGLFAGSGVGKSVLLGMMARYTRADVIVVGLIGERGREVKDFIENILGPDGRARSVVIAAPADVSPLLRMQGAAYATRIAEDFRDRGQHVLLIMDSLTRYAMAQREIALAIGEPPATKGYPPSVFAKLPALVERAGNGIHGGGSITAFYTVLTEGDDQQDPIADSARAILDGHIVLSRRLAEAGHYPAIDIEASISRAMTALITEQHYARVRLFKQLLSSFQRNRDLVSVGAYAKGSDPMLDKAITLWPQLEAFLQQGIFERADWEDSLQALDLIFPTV

Work on `Nc1ncnc2c1ncn2[C@@H]1O[C@H](COP(=O)(O)OP(=O)(O)OP(=O)(O)O)[C@@H](O)[C@H]1O` [ATP] yielded a Km of 1 ± 15% mM.
